# Values joined by “and” are separate entries in the source; they are usually repeats but may differ in a detail not shown here. Equal entries are not always repeated. Where two headings read alike, the source gives them in different places. Marks after values point to notes of the source that are not given here.
# Key:
# [1] = test system: T1, His-tagged-Hsp90; experiment: Hsp90 biochemical assay (AlphaLISA); format: binding
# T1 construct: fused on or other part: His tag (captured on Ni2+-coated beads)
# Method: This assay employs biotinylated geldanamycin, His-tagged-Hsp90, and Ni^+2 coated beads. This assay is homogenous and miniaturized to 384-well plates. Measurement of binding activity was performed on an Envision reader. […] This assay is the primary assay for evaluating compounds of the invention.
# [2] = test system: SH-SY5Y-hTAU441 cells; experiment: Cytotoxicity assay (MTT); format: cell-based; settings: FIG. 6A
# Method: SH-SY5Y-hTAU441 cell viability was determined using the MTT assay. […] SH-SY5Y cell viability may also be measured after 24 and 48 h with the CellTiter-Glo® assay that measures ATP-levels. In addition, cytotoxicity may be assessed using the Celigo® with live cell microscopic imaging and a GE InCell Analyzer 2000 to measure multiple outcomes including apoptosis markers, membrane permeability, and mitochondrial activity.
# [3] = Mouse liver microsomal stability; format: in vitro ADME; settings: mouse liver microsomes; read-out: microsomal stability T1/2
# Method: Metabolic stability of the compounds of the invention was assessed by monitoring their degradation in mouse liver microsomes.
# [4] = test system: P-glycoprotein (P-gp, MDR1); experiment: MDR1-MDCK permeability assay; format: in vitro ADME; settings: dog, apical to basal
# Excerpt: (§1) Compounds may be assessed in MDR1-MDCK permeability assay or Caco-2 permeability assay to determine their permeability. Apical (A) to basal (B) permeability >3×10^−6 cm/sec and B→A/A→B asymmetry <3 for a compound are considered acceptable predictors of brain penetration, and compounds having such properties are unlikely to be P-glycoprotein (P-gp) substrates. Compound 20 has shown excellent permeability in MDR1-MDCK assay (A-B=28×10^−6 cm/s) with low asymmetry (B→A/A→B asymmetry=0.9).
# [5] = test system: P-gp (MDR1); experiment: MDR1-MDCK permeability assay; format: in vitro ADME; settings: dog, read-out: B→A/A→B asymmetry
# Excerpt: as §1
# [6] = Mouse pharmacokinetics, brain tissue levels (LC-MS/MS); format: in vivo; settings: for concentration at 0.5 h: 0.50 h; for half-life: read-out: Half life (t1/2) (converted)
# Method: Plasma and brain samples were taken pre-dose and at post dose time points of pre-dose, 15 and 30 minutes, 1, 2, and 8 hours. The pre-dose group was represented by 5 animals, whereas the post-dose groups were represented by 3 animals.
# Bioanalysis of mouse plasma samples for compound 20 was conducted by protein precipitation and LC-MS/MS with compound 22 as the internal standard. The method was based on a ‘generic assay’ and some method development was conducted to tailor that assay to the particular compound and internal standard. The eventual non-GLP assay was first tested by analyzing a bioanalytical run with spiked mouse plasma samples. The qualification run passed by the run acceptance criteria (see below). Bioanalysis was then conducted of plasma sample extracts and of brain sample homogenate extracts, using a calibration and quality control samples spiked in mouse plasma. The assay is described below.
# Evaluation of pharmacokinetic parameters was conducted by calculation from the mean concentration (n=5 pre-dose, n=3 post-dose) at each time point.
# [7] = test system: Hsp70; experiment: Hsp90 cell based functional assay (Western blot for Hsp70, Hsp90)
# Method: Cells were treated with compounds of the invention for 24 h and then lysed in a buffer containing NP-40, orthovanadate, and protease inhibitors. Western blots were performed with antibodies specific to Hsp70, Hsp90, or actin (as control).
# [8] = mouse brain tissue, Table 14, footnote: excluding IRN 12 result
# [9] = mouse brain tissue, Table 15, footnote: including IRN 12 result
# [10] = mouse, brain homogenate, mouse brain homogenate, read-out: Mean Group Concentration, Homogenate
# [11] = mouse, brain, mouse brain tissue, read-out: Mean Group Concentration, Tissue
# [12] = mouse, brain, mouse brain tissue, Table 14, footnote: excluding IRN 12 result
# [13] = mouse, brain, mouse brain tissue, Table 15, footnote: including IRN 12 result
smiles,measurement,setting,value
"Nc1nc(-c2c(Cl)cc(Cl)c3c2CCO3)c2[nH]ccc2n1 [compound 20, 4-(5,7-Dichloro-2,3-dihydrobenzofuran-4-yl)-5H-pyrrolo[3,2-d]pyrimidin-2-amine]",IC50,"[1]; AlphaLISA, FIG. 5A, read-out: Hsp90 inhibitory activity IC50",740 ± 100 nM
same,IC50,"[1]; IC50 class, AlphaLISA (primary assay), read-out: Hsp90 inhibitory activity",< 1000 nM
same,cell viability,[2],did not affect cell viability
same,half-life,[3],26 min
same,Papp A→B,[4],28 ×10⁻⁶ cm/s
same,efflux ratio,[5],0.9
same,"Homogenate concentration, individual animals","[6]; mouse brain homogenate, 15 minutes post dose (B_0.25), 0.00 = below LLOQ 0.988 ng/mL",0.00 ^a ng/mL and 1250 ng/mL
same,"Homogenate concentration, individual animals","[6]; mouse brain homogenate, 30 minutes post dose (C_0.5)",844 ng/mL and 1200 ng/mL
same,"Homogenate concentration, individual animals","[6]; mouse brain homogenate, 1 hour post dose (D_1)",859 ng/mL and 789 ng/mL
same,"Homogenate concentration, individual animals","[6]; mouse brain homogenate, 2 hours post dose (E_2)",385 ng/mL and 294 ng/mL
same,"Homogenate concentration, individual animals","[6]; mouse brain homogenate, 8 hours post dose (F_8)",7.53 ng/mL and 1.83 ng/mL and 1.53 ng/mL
same,"Mean Group Concentration, Tissue","[6]; mouse brain tissue, 0.25 h, excluding IRN 12 result",^a excluding IRN 12 result: 15772 ng/g.
same,"Mean Group Concentration, Tissue","[6]; mouse brain tissue, 0.25 h, incl. IRN 12",10515 ^a ng/g
same,AUC(0-inf),[6]; [8],22900 ng·h/mL
same,Kelimination,[6]; [8],0.769 per hour (h^−1)
same,AUC(0-t),"[6]; mouse brain tissue, Table 14, footnote: excluding IRN 12 result, read-out: AUC(0-8 h)",22900 ng·h/mL
same,Tmax,"[6]; mouse brain tissue, Table 14, footnote: excluding IRN 12 result, read-out: Tmax",15 min
same,Kelimination,[6]; [9],0.789 per hour (h^−1)
same,Tmax,[6]; [9],15 min (h)
same,"Brain concentration, individual animals","[6]; mouse brain, 15 minutes post dose (B_0.25), 0.00 = below LLOQ",0.00 ^a ng/g and 10870 ng/g
same,"Brain concentration, individual animals","[6]; mouse brain, 30 minutes post dose (C_0.5)",7371 ng/g and 10480 ng/g
same,"Brain concentration, individual animals","[6]; mouse brain, 1 hour post dose (D_1)",7486 ng/g and 6846 ng/g
same,"Brain concentration, individual animals","[6]; mouse brain, 2 hours post dose (E_2)",3341 ng/g and 2518 ng/g
same,"Brain concentration, individual animals","[6]; mouse brain, 8 hours post dose (F_8)",63.0 ng/g and 15.0 ng/g and 12.9 ng/g
same,concentration at 0.25 h,"[6]; mouse, brain homogenate, mouse brain homogenate, 0.25 h, incl. IRN 12, read-out: Mean Group Concentration, Homogenate",1180 ng/mL
same,concentration at 15 min,"[6]; mouse, brain homogenate, mouse brain homogenate, 15 minutes post dose (B_0.25), 0.00 = below LLOQ 0.988 ng/mL, read-out: Homogenate concentration, individual animals",2300 ng/mL
same,concentration at 0.5 h,[6]; [10],1150 ng/mL
same,concentration at 30 min,"[6]; mouse, brain homogenate, mouse brain homogenate, 30 minutes post dose (C_0.5), read-out: Homogenate concentration, individual animals",1400 ng/mL
same,concentration at 1 h,"[6]; mouse, brain homogenate, mouse brain homogenate, 1.00 h, read-out: Mean Group Concentration, Homogenate",845 ng/mL
same,concentration at 1 h,"[6]; mouse, brain homogenate, mouse brain homogenate, 1 hour post dose (D_1), read-out: Homogenate concentration, individual animals",888 ng/mL
same,concentration at 2 h,"[6]; mouse, brain homogenate, mouse brain homogenate, 2.00 h, read-out: Mean Group Concentration, Homogenate",363 ng/mL
same,concentration at 2 h,"[6]; mouse, brain homogenate, mouse brain homogenate, 2 hours post dose (E_2), read-out: Homogenate concentration, individual animals",410 ng/mL
same,concentration at 8 h,[6]; [10],3.63 ng/mL
same,concentration at 0.5 h,[6]; [11],9820 ng/g
same,concentration at 1 h,"[6]; mouse, brain, mouse brain tissue, 1.00 h, read-out: Mean Group Concentration, Tissue",7280 ng/g
same,concentration at 2 h,"[6]; mouse, brain, mouse brain tissue, 2.00 h, read-out: Mean Group Concentration, Tissue",3150 ng/g
same,concentration at 8 h,[6]; [11],30 ng/g
same,Cmax,[6]; [12],10500 ng/g
same,half-life,[6]; [12],54 min
same,Cmax,[6]; [13],15800 ng/g
same,half-life,[6]; [13],52.8 min
same,concentration at 15 min,"[6]; mouse, brain, mouse brain, 15 minutes post dose (B_0.25), 0.00 = below LLOQ, read-out: Brain concentration, individual animals",20700 ng/g
same,concentration at 30 min,"[6]; mouse, brain, mouse brain, 30 minutes post dose (C_0.5), read-out: Brain concentration, individual animals",11600 ng/g
same,concentration at 1 h,"[6]; mouse, brain, mouse brain, 1 hour post dose (D_1), read-out: Brain concentration, individual animals",7490 ng/g
same,concentration at 2 h,"[6]; mouse, brain, mouse brain, 2 hours post dose (E_2), read-out: Brain concentration, individual animals",3600 ng/g
same,expression of Hsp70,"[7]; Western blot, FIG. 5B",increase in the expression of Hsp70
same,expression of Hsp90,"[7]; Western blot, FIG. 5B, relative to variation in concentration",expression of Hsp90 remains unchanged
same,EC50,[7]; read-out: Hsp 70 agonist activity,> 10 µM
